Patent US11091482B2, “Isoxazolyl-carbonyloxy azabicyclo[3.2.1]octanyl compounds as FXR activators” (ARDELYX, INC., priority 2016, dated 2021)
Read-outs that look alike come from different tables or passages of the source.

Tests used:
[1] = target: ligand binding domain of human FXR (Homo sapiens (Human), UniProt Q96RI1); assay: FXR ligand binding assay (LanthaScreen FRET); conditions: for Emax: read-out: % Efficacy;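 for all read-outs here: TR-FRET coactivator recruitment: ligand-induced binding of fluorescein-labelled SRC2-2 peptide to GST-tagged FXR LBD detected via Tb anti-GST antibody, serial compound dilutions, 3-parameter logistic fit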
Chain of ligand binding domain of human FXR (Q96RI1 262-486): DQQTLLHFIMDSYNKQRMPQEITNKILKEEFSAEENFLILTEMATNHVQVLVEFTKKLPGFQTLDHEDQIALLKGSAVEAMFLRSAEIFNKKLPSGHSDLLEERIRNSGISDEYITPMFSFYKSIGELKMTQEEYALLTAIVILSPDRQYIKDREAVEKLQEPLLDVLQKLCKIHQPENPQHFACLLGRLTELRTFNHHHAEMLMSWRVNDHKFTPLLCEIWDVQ
Experimental: The affinity of FXR ligands for the ligand binding domain of FXR was determined using a commercially available human FXR ligand binding assay (LanthaScreen, Thermofisher Cat #PV4833). […] Binding of FXR ligands to the FXR ligand binding domain promotes binding of the fluorescein-labelled SRC2-2 peptide. This causes a FRET signal between the terbium-labelled anti-GST antibody and the fluorescein-labelled SRC peptide which are both bound to the FXR ligand binding domain.
Test compounds are dissolved in DMSO and a 3-fold serial dilution series is generated, then further diluted into assay buffer. The compounds are mixed with 5 nM GST-tagged FXR ligand binding domain, 5 nM Tb-labelled anti-GST antibody and 500 nM fluorcscein-labelled SRC2-2 peptide in a pH 7.4 buffer. The reaction is incubated at room temperature for 1 hour, then the FRET signal is measured as the ratio of the 520 nm/495 nm emission following excitation at 340 nm. The change in FRET signal is plotted against the test article concentration and fit to a 3-parameter logistical equation.

[2] = target: human Farnesoid X receptor ligand-binding domain/Gal4 DNA binding domain chimera (Homo sapiens (Human), UniProt Q96RI1); assay: Cell-based FXR beta-lactamase reporter assay (FXR-UAS-bla HEK 293T cells); conditions: for Emax: HEK-293T, read-out: % Efficacy; for EC50 / FXR pEC50 / % Efficacy: cellular FXR beta-lactamase reporter assay; for EC50 / FXR pEC50: -log EC50; for EC50: read-out: FXR pEC50 (converted); for % Efficacy: extent of activation relative to GW4064
Chain of human Farnesoid X receptor ligand-binding domain/Gal4 DNA binding domain chimera (Q96RI1 262-486, stated change not applied): as the sequence (Q96RI1 262-486) above
Experimental: FXR activation was measured using a cell line and procedure obtained from Life Technologies (Cat #K1691). FXR-UAS-bla HEK 293T cells contain a human Farnesoid X receptor ligand-binding domain/Gal4 DNA binding domain chimera stably integrated into the CellSensor® UAS-bla HEK 293T cell line. The CellSensor® UAS-bla HEK 293T contains a beta-lactamase reporter gene under control of a UAS response element stably integrated into HEK 293T cells. Activation of FXR by bound ligands results in transcriptional activation of the beta-lactamase reporter gene, which is detected via assay of beta-lactamase activity. Cells are harvested and diluted into assay medium containing phenol red-free DMEM supplemented with 2% Charcoal-stripped FBS, pyruvate, non-essential amino acids. Cells are then transferred to a 384 well assay plate. Test compounds are dissolved in DMSO and a 3-fold serial dilution series is generated, then further diluted into assay medium. […] A FRET-based […] is loaded into cells as its acetomethoxy ester. Intracellular esterases liberate free CCF4, a cephalosporin core linking 7-hydroxycoumarin to fluorescein. In the presence of beta-lactamase activity produced in the presence of FXR agonists, cleavage of CCF4 spatially separates the two dyes and disrupts FRET, so that exciting the coumarin at 409 nm now produces a blue fluorescence signal at 447 nm. The change in FRET signal is plotted against the test compound concentration and fit to a 3-parameter logistical equation.

[3] = FXR ligand binding assay, -log EC50
[4] = FXR ligand binding assay, extent of activation relative to GW4064

| Compound | FXR pEC50 [1, 3] | Emax [1] [%] | Emax [2] [%] | EC50 [2] [nM] | % Efficacy [1, 4] [%] | FXR pEC50 [2] | % Efficacy [2] [%] | % Efficacy [1] [%] | EC50 ([1]; FXR ligand binding assay, -log EC50, read-out: FXR pEC50 (converted)) [nM] |
| --- | --- | --- | --- | --- | --- | --- | --- | --- | --- |
| O=C(O)c1ccc(N2[C@@H]3CC[C@H]2C[C@@H](OC(=O)c2c(-c4c(Cl)cccc4Cl)noc2C2CC2)C3)cc1F [Compound I-41, 4-[(1R,3R,5S)-3-[5-cyclopropyl-3-(2,6-dichlorophenyl)-1,2-oxazole-4-carbonyloxy]-8-azabicyclo[3.2.1]octan-8-yl]-2-fluorobenzoic acid] | 7.7 | 92 | 117 | 20 |  |  |  |  |  |
| O=C(NS(=O)(=O)CC1CC1)c1ccc(N2[C@@H]3CC[C@H]2C[C@H](OC(=O)c2c(-c4c(Cl)cccc4Cl)noc2C2CC2)C3)cc1 [Compound I-49, (1R,3S,5S)-8-[4-(cyclopropylmethanesulfonylcarbamoyl)phenyl]-8-azabicyclo[3.2.1]octan-3-yl 5-cyclopropyl-3-(2,6-dichlorophenyl)-1,2-oxazole-4-carboxylate] | 8 |  |  |  | 128 | 8.1 | 107 |  |  |
| O=C(O)c1ccc(N2[C@@H]3CC[C@H]2C[C@@H](OC(=O)c2c(-c4c(Cl)cccc4Cl)noc2C2CC2)C3)cc1 [Compound I-34, 4-[(1R,3R,5S)-3-[5-Cyclopropyl-3-(2,6-dichlorophenyl)-1,2-oxazole-4-carbonyloxy]-8-azabicyclo[3.2.1]octan-8-yl]benzoic Acid] |  | 79 | 107 | 20 |  |  |  |  |  |
| CCCCCS(=O)(=O)NC(=O)c1ccc(N2[C@@H]3CC[C@H]2C[C@@H](OC(=O)c2c(-c4c(Cl)cccc4Cl)noc2C2CC2)C3)cc1 [Compound I-46, (1R,3R,5S)-8-{4-[(pentane-1-sulfonyl)carbamoyl]phenyl}-8-azabicyclo[3.2.1]octan-3-yl 5-cyclopropyl-3-(2,6-dichlorophenyl)-1,2-oxazole-4-carboxylate] | 8.2 |  |  |  |  | 8.5 | 110 |  |  |
| CCCS(=O)(=O)NC(=O)c1cc(F)c2nc(N3[C@@H]4CC[C@H]3C[C@@H](OC(=O)c3c(-c5c(Cl)cccc5Cl)noc3C3(F)CC3)C4)sc2c1 [Compound I-62, (1R,3R,5S)-8-{4-fluoro-6-[(propane-1-sulfonyl)carbamoyl]-1,3-benzothiazol-2-yl}-8-azabicyclo[3.2.1]octan-3-yl 3-(2,6-dichlorophenyl)-5-(1-fluorocyclopropyl)-1,2-oxazole-4-carboxylate] | 7.4 | 145 | 107 | 20 |  |  |  |  |  |
| O=C(Cc1c(-c2c(Cl)cccc2Cl)noc1C1CC1)O[C@H]1C[C@H]2CC[C@@H](C1)N2c1nc2c(F)cc(C(=O)O)cc2s1 [Compound I-32, 2-[(1R,3R,5S)-3-({2-[5-cyclopropyl-3-(2,6-dichlorophenyl)-1,2-oxazol-4-yl]acetyl}oxy)-8-azabicyclo[3.2.1]octan-8-yl]-4-fluoro-1,3-benzothiazole-6-carboxylic Acid] | 7.4 |  |  |  | 34 | 6.4 | 86 |  |  |
| O=C(O)c1cc(F)c2nc(N3[C@@H]4CC[C@H]3C[C@@H](OC(=O)c3c(-c5c(F)cccc5F)noc3C3CC3)C4)sc2c1 [Compound I-16, 2-[(1R,3R,5S)-3-[5-cyclopropyl-3-(2,6-difluorophenyl)-1,2-oxazole-4-carbonyloxy]-8-azabicyclo[3.2.1]octan-8-yl]-4-fluoro-1,3-benzothiazole-6-carboxylic Acid] | 7.4 |  |  |  | 47 | 6.7 | 110 |  |  |
| CN1c2cc(N3[C@@H]4CC[C@H]3C[C@@H](OC(=O)c3c(-c5c(Cl)cccc5Cl)noc3C3CC3)C4)ccc2C(=O)C1(F)F [Compound I-30, (1R,3R,5S)-8-(2,2-difluoro-1-methyl-3-oxo-2,3-dihydro-1H-indol-6-yl)-8-azabicyclo[3.2.1]octan-3-yl 5-cyclopropyl-3-(2,6-dichlorophenyl)-1,2-oxazole-4-carboxylate] |  | 40 | 82 | 100 |  |  |  |  |  |
| O=C(O)c1ccc(N2[C@@H]3CC[C@H]2C[C@@H](OC(=O)c2c(-c4c(Cl)cccc4Cl)noc2C2CC2)C3)c(F)c1 [Compound I-35, 4-[(1R,3R,5S)-3-[5-Cyclopropyl-3-(2,6-dichlorophenyl)-1,2-oxazole-4-carbonyloxy]-8-azabicyclo[3.2.1]octan-8-yl]-3-fluorobenzoic Acid] |  | 92 | 116 | 31.6 |  |  |  |  |  |
| CC(C)S(=O)(=O)NC(=O)c1ccc(N2[C@@H]3CC[C@H]2C[C@@H](OC(=O)c2c(-c4c(Cl)cccc4Cl)noc2C2CC2)C3)cc1 [Compound I-47, (1R,3R,5S)-8-{4-[(propane-2-sulfonyl)carbamoyl]phenyl}-8-azabicyclo[3.2.1]octan-3-yl 5-cyclopropyl-3-(2,6-dichlorophenyl)-1,2-oxazole-4-carboxylate] | 7.8 |  |  |  | 168 | 8.5 | 124 |  |  |
| CC1(c2onc(-c3c(Cl)cccc3Cl)c2C(=O)OC2C[C@H]3CC[C@@H](C2)N3c2nc3c(F)cc(C(=O)O)cc3s2)CC1 (single isomer, unassigned) [Compound I-26] | 7.4 |  |  |  |  | 7.5 |  |  |  |
| O=C(O)c1cc(F)c2nc(N3[C@@H]4CC[C@H]3C[C@@H](OC(=O)c3c(-c5ccccc5OC(F)(F)F)noc3C3CC3)C4)sc2c1 [Compound I-14, 2-[(1R,3R,5S)-3-{5-cyclopropyl-3-[2-(trifluoromethoxy)phenyl]-1,2-oxazole-4-carbonyloxy}-8-azabicyclo[3.2.1]octan-8-yl]-4-fluoro-1,3-benzothiazole-6-carboxylic Acid] | 7.6 |  |  |  | 147 | 8.1 | 116 |  |  |
| Cn1c(N2[C@@H]3CC[C@H]2C[C@@H](OC(=O)c2c(-c4c(Cl)cccc4Cl)noc2C2CC2)C3)nc2c(F)cc(C(=O)O)cc21 [Compound I-31, 2-[(1R,3R,5S)-3-[5-cyclopropyl-3-(2,6-dichlorophenyl)-1,2-oxazole-4-carbonyloxy]-8-azabicyclo[3.2.1]octan-8-yl]-4-fluoro-1-methyl-1H-1,3-benzodiazole-6-carboxylic Acid] | 6.6 |  |  |  |  | 6.4 | 100 | 63 |  |
| O=C(NS(=O)(=O)C1CC1)c1ccc(N2[C@@H]3CC[C@H]2C[C@H](OC(=O)c2c(-c4c(Cl)cccc4Cl)noc2C2CC2)C3)cc1 [Compound I-48, (1R,3S,5S)-8-{4-[(cyclopropanesulfonyl)carbamoyl]phenyl}-8-azabicyclo[3.2.1]octan-3-yl 5-cyclopropyl-3-(2,6-dichlorophenyl)-1,2-oxazole-4-carboxylate] | 8.2 |  |  |  | 124 | 8.6 | 130 |  |  |
| O=C(O)c1cc(F)c2nc(N3[C@@H]4CC[C@H]3C[C@@H](OC(=O)c3c(-c5c(Cl)cccc5Cl)noc3C3(F)CC3)C4)sc2c1 [Compound I-27, 2-[(1R,3R,5S)-3-[3-(2,6-dichlorophenyl)-5-(1-fluorocyclopropyl)-1,2-oxazole-4-carbonyloxy]-8-azabicyclo[3.2.1]octan-8-yl]-4-fluoro-1,3-benzothiazole-6-carboxylic Acid] | 8.2 |  |  |  | 107 | 8.4 | 108 |  |  |
| COc1cc(C(=O)O)ccc1N1[C@@H]2CC[C@H]1C[C@@H](OC(=O)c1c(-c3c(Cl)cccc3Cl)noc1C1CC1)C2 [Compound I-40, 4-[(1R,3R,5S)-3-[5-cyclopropyl-3-(2,6-dichlorophenyl)-1,2-oxazole-4-carbonyloxy]-8-azabicyclo[3.2.1]octan-8-yl]-3-methoxybenzoic acid] |  | 103 | 117 | 39.8 |  |  |  |  | 63.1 |
| COc1cc2nc(N3[C@@H]4CC[C@H]3C[C@@H](OC(=O)c3c(-c5c(F)cccc5F)noc3C3CC3)C4)sc2cc1C(=O)O [Compound I-18, 2-[(1R,3R,5S)-3-[5-cyclopropyl-3-(2,6-difluorophenyl)-1,2-oxazole-4-carbonyloxy]-8-azabicyclo[3.2.1]octan-8-yl]-5-methoxy-1,3-benzothiazole-6-carboxylic Acid] |  | 66 | 99 | 251 |  |  |  |  |  |
